Measured values reported in patent publication US8946439B2, “Amide compounds, compositions and uses thereof” (Evotec AG, priority 2008, dated 2015).
pIC50: −log10 of the molar value. Where two headings read alike, the source gives them in different places.

Legend:
hP2X3 = biological target: T1, hP2X3 (Homo sapiens, UniProt P56373); test: Calcium uptake assay (P2X antagonist assay), P2X3 homomer; assay type: cell-based; details: hP2X3; for pIC50: Ca influx (calcium uptake assay), read-out: IC50 hP2X3; for IC50: calcium uptake assay, read-out: IC50 hP2X3 (nM), Ca Influx
T1 construct: expressed in transfected cells; host or cells: e.g. HEK293 or 1321N1
T1 sequence (P56373 1-397): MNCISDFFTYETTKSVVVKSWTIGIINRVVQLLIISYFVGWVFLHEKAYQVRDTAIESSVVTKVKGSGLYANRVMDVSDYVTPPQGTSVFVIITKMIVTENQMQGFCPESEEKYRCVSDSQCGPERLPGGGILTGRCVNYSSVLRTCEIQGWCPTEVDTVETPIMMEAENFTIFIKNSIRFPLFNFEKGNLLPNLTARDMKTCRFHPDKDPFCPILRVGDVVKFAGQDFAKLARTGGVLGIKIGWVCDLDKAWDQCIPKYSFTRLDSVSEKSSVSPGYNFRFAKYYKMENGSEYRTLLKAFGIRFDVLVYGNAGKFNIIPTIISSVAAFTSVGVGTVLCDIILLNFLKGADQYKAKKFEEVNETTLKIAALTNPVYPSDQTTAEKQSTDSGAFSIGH
How it was run: (§1)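 Stably or transiently transfected HEK293 or 1321N1 cells; the heteromer is made by adding P2X3 to a P2X2-stable line, with heteromer function isolated pharmacologically. The peak-minus-baseline FLIPR calcium signal gives % inhibition and a 4-parameter-logistic IC50.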

hP2X2/3H = biological target: T2, hP2X2/3H (Homo sapiens, UniProt P56373+Q9UBL9); test: Calcium uptake assay (P2X antagonist assay), P2X2/3 heteromer; assay type: cell-based; details: hP2X2/3H; for pIC50: Ca influx (calcium uptake assay), read-out: IC50 hP2X2/3H; for IC50: calcium uptake assay, read-out: IC50 hP2X2/3H (nM), Ca Influx
T2 construct: expressed in transfected cells; host or cells: e.g. HEK293 or 1321N1
T2 sequence (Q9UBL9 1-471): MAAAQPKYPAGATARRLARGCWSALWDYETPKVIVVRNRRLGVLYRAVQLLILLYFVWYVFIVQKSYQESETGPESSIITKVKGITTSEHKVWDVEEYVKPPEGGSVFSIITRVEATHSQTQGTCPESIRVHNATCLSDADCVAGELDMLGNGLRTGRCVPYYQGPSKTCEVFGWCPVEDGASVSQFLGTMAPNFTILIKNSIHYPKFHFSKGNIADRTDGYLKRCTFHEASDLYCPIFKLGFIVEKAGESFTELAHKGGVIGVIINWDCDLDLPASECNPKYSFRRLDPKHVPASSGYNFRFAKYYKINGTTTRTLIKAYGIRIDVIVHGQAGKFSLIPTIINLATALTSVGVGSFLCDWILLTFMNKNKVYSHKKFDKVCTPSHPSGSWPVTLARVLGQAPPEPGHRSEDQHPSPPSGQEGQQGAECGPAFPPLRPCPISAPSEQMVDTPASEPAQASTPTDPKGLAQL
T2 sequence (P56373 1-397): T1 sequence (P56373 1-397)
How it was run: as §1

Row | pIC50 (hP2X3) | pIC50 (hP2X2/3H) | IC50 (hP2X3) [nM] | IC50 (hP2X2/3H) [nM] | Compound
1 | > 7.00 | 6.30 to 7.00 |  |  | Cc1ccc(-c2cc(OC3CNCC3O)cc(C(=O)N[C@H](C)c3ccc(C)nc3)c2)c(C#N)c1 (stereo partly drawn) [Compound 338, 2′-Cyano-5-(4-hydroxypyrrolidin-3-yloxy)-4′-methyl-N—((R)-1-(6-methylpyridin-3-yl)ethyl)biphenyl-3-carboxamide]
2 | 6.30 to 7.00 | 6.00 to 6.30 |  |  | Cc1ccc(-c2cc(Oc3ncccn3)cc(C(=O)N[C@H](C)c3cnc(C)nc3)c2)nc1 [Compound 273]
3 |  |  | 100 to 500 | 100 to 500 | Cc1ccc(-c2cc(C(=O)NCc3ccc(C(F)(F)F)nc3)cc(S(C)(=O)=O)c2)cc1 [Compound 37, 4′-Methyl-5-(methylsulfonyl)-N-((6-(trifluoromethyl)pyridin-3-yl)methyl)biphenyl-3-carboxamide]
4 |  |  | 100 to 500 | > 1000 | Cc1ccc(-c2cc(S(=O)(=O)N3CCCC3)cc(C(=O)NCc3ccc(Cl)c(S(C)(=O)=O)c3)c2C)cc1 [Compound 66]
5 | > 7.00 | 6.30 to 7.00 |  |  | Cc1ccc(-c2cc(C(=O)N[C@H](C)c3ccc(C)nc3)cc(C(O)CO)c2)nc1 (stereo partly drawn) [Compound 319]
6 | > 7.00 | > 7.00 |  |  | COCC(C)Oc1cc(C(=O)N[C@H](C)c2ccc(C)nc2)cc(-c2ccc(C)cc2C#N)c1 (stereo partly drawn) [Compound 316]
7 |  |  | 100 to 500 | 100 to 500 | Cc1ccc(-c2cc(C(=O)NCc3ccc4cccnc4c3)cc(C(=O)N3CCCC3)c2)cc1 [Compound 49, 4′-Methyl-5-(pyrrolidine-1-carbonyl)-N-(quinolin-7-ylmethyl)biphenyl-3-carboxamide]
8 | > 7.00 | > 7.00 |  |  | COCC(C)Oc1cc(C(=O)NCc2ccc(C)nc2)cc(-c2ccc(C)cc2)c1 (stereo not drawn) [Compound 300]
9 | 6.30 to 7.00 | 6.30 to 7.00 |  |  | COCc1cc(C(=O)N[C@H](C)c2cnc(C)nc2)cc(-c2ccc(C)cn2)c1 [Compound 274, (R)-3-(Methoxymethyl)-5-(5-methylpyridin-2-yl)-N-(1-(2-methylpyrimidin-5-yl)ethyl)benzamide]
10 | > 7.00 | > 7.00 |  |  | Cc1ccc(-c2cc(C(=O)NCc3ccc(C)nc3)cc(C(O)CN3CCOCC3)c2)cc1 (stereo not drawn) [Compound 365, 5-(1-Hydroxy-2-morpholinoethyl)-4′-methyl-N-((6-methylpyridin-3-yl)methyl)biphenyl-3-carboxamide]
11 |  |  | 100 to 500 | < 100 | CCOC(=O)c1cc(C(=O)NCc2ccc(C)nc2)cc(-c2ccc(C)cc2)c1 [Compound 88]
12 |  |  | < 100 | < 100 | Cc1ccc(-c2cc(C(=O)N[C@H](C)c3ccc(C(F)(F)F)nc3)cc(C(=O)N3CCCC3)c2)nc1 [Compound 135]
13 |  |  | < 100 | < 100 | Cc1ccc(-c2cc(C(=O)NCc3ncc(C(F)(F)F)cc3Cl)cc(C(=O)N3CCCC3)c2)cc1 [Compound 74]
14 | > 7.00 | > 7.00 |  |  | Cc1ccc(-c2cc(OCC3CCOC3)cc(C(=O)N[C@H](C)c3ccc(C)nc3)c2)c(C#N)c1 (stereo partly drawn) [Compound 313]
15 |  |  | < 100 | 100 to 500 | Cc1ccc(-c2cc(C(=O)NCc3ccc(C)nc3)cc(C(=O)N3CCN(c4nccs4)CC3)c2)cc1 [Compound 127, 4′-Methyl-N-((6-methylpyridin-3-yl)methyl)-5-(4-(thiazol-2-yl)piperazine-1-carbonyl)biphenyl-3-carboxamide]
16 |  |  | < 100 | < 100 | Cc1ccc(-c2cc(C(=O)N[C@H](C)c3cnn(C)c3Cl)cc(C(=O)N3CCCC3)c2)cc1 [Compound 108, (R)—N-(1-(5-Chloro-1-methyl-1H-pyrazol-4-yl)ethyl)-4′-methyl-5-(pyrrolidine-1-carbonyl)biphenyl-3-carboxamide]
17 | > 7.00 | > 7.00 |  |  | COc1ccc([C@@H](CCO)NC(=O)c2cc(-c3ccc(C)cc3)cc(S(C)(=O)=O)c2)cn1 [Compound 222]
18 |  |  | 100 to 500 | 100 to 500 | CCCS(=O)(=O)c1cc(C(=O)NCc2ccc(C(F)(F)F)nc2)cc(-c2ccc(C)cc2)c1 [Compound 44]
19 |  |  | 100 to 500 | 100 to 500 | Cc1ccc(-c2cc(C(=O)NCc3ccc(C(F)(F)F)nc3)cc(C(=O)N3CCCC3)c2)cc1 [Compound 47]
20 | > 7.00 | 6.30 to 7.00 |  |  | Cc1ccc(-c2cc(CO)cc(C(=O)NCc3ccc(C)nc3)c2)c(C#N)c1 [Compound 306]
21 | > 7.00 | < 6.00 |  |  | Cc1ccc(-c2cc(OC3CNCC3O)cc(C(=O)N[C@H](C)c3cnc(C)nc3)c2)nc1 (stereo partly drawn) [Compound 355]
